According to US20240116985A1, “STAPLED PEPTIDES AND METHODS THEREOF” (priority 2020, published 2024):
Read-outs that look alike come from different tables or passages of the source.

Legend:
[1] = target: T1, beta-catenin/TCF4 engagement (Homo sapiens, UniProt P35222); assay: Nano-BRET target engagement assay (B-cat-Halo & TCF4-Luc in HEK293 cells); assay type: cell-based; settings: for inhibition at 10 µM: read-out: NanoBRET % inh @ 10 uM
T1 construct: expressed in transfected cells; host or cells: HEK293
T1 sequence (P35222 1-781): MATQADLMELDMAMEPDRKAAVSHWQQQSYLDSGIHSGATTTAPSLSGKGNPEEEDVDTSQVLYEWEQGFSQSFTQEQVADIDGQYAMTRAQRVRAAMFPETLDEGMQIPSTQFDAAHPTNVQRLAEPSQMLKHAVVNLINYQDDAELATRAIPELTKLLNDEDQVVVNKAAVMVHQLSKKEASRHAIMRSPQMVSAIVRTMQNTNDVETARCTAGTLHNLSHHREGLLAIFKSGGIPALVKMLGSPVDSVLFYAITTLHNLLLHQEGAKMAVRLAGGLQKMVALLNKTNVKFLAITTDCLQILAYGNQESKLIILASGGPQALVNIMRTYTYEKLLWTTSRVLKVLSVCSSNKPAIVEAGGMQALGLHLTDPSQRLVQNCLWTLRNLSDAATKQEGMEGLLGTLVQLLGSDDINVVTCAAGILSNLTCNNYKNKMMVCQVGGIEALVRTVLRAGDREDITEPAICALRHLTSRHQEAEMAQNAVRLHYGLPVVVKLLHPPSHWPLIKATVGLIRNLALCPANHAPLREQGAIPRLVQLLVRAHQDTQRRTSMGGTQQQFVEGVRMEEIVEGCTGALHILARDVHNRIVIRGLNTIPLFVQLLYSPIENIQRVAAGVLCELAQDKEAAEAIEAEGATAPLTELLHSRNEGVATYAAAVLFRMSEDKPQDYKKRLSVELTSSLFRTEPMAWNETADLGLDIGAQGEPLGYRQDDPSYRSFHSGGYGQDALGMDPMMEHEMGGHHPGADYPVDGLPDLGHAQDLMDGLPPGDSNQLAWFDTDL

[2] = target: T2, full-length beta-Catenin (Uniprot ID P35222) (Homo sapiens, UniProt P35222); assay: Fluorescence polarization IC50 (beta-catenin / 5FAM-TCF4 10-53 competition); assay type: binding
T2 construct: 10 nM full-length beta-Catenin (Uniprot ID P35222)
T2 sequence (P35222 1-781): T1 sequence (P35222 1-781)

CHI Log D procedure = assay type: physicochemical; settings: for chromatographic logD: pH 7.4, CHI Log D; for CHI Log D: pH 7.4
[3] = absolute IC50, read-out: NanoBRET Abs IC50
[4] = fluorescence polarization, read-out: beta-Catenin FP IC50

SMILES	IC50 [1, 3]	IC50 ([2]; read-out: beta-Catenin FP IC50)	chromatographic logD (CHI Log D procedure)	IC50 [2, 4]	further results
CC(=O)N1CCC[C@]12CC=CCCCC1(CCCC=CCCCOC(=O)N3CC[C@@](C(=O)N[C@@H](Cc4ccsc4)C(=O)N[C@@H](Cc4csc5ccccc45)C(=O)N[C@@H](CCC(N)=O)C(N)=O)(C3)NC(=O)[C@H](Cc3ccccc3)NC(=O)[C@H](Cc3ccccc3)NC(=O)[C@H](C)NC(=O)[C@H](C)NC(=O)[C@H](CN(CC(=O)O)CC(F)(F)F)NC(=O)[C@H](CC(=O)O)NC1=O)NC(=O)[C@H](CC(C)(C)C)NC(=O)[C@H](CC(=O)O)NC2=O (stereo partly drawn) [I-848, Ac-PL3-Asp-Npg-B5-Asp-TfeGA-Ala-Ala-Phe-Phe-PyrS2-3Thi-BztA-Gln-NH2]	7 µM	13 nM	2.46		
C#CCOCCOCCOCCC(=O)NCCCC[C@H](NC(=O)[C@H](CCC(N)=O)NC(=O)[C@H](Cc1csc2ccccc12)NC(=O)[C@H](Cc1ccsc1)NC(=O)[C@]12CCN(C1)C(=O)OCCCC=CCCCC1(CCCC=CC[C@]3(CCCN3C(C)=O)C(=O)N[C@@H](CC(=O)O)C(=O)N[C@@H](CC(C)(C)C)C(=O)N1)C(=O)N[C@@H](CC(=O)O)C(=O)N[C@@H](CC(=O)O)C(=O)N[C@@H](C)C(=O)N[C@@H](C)C(=O)N[C@@H](Cc1ccccc1)C(=O)N[C@@H](CC(N)=O)C(=O)N2)C(N)=O (stereo partly drawn) [I-937, Ac-PL3-Asp-Npg-B5-Asp-Asp-Ala-Ala-Phe-Asn-PyrS2-3Thi-BztA-Gln-[PropynPEG3]Lys-NH2]		9 nM	1.94		IC50 ([1]; read-out: NanoBRET Abs IC50): 28.8 µM
CC(=O)N1CCC[C@]12CC=CCCCC1(CCCC=CCCCOC(=O)N3CC[C@@](C(=O)N[C@@H](Cc4ccsc4)C(=O)N[C@@H](Cc4cn(C)c5ccccc45)C(=O)N[C@@H](Cc4c[nH]cn4)C(N)=O)(C3)NC(=O)[C@H](CC(N)=O)NC(=O)[C@H](Cc3ccccc3)NC(=O)[C@H](C)NC(=O)[C@H](C)NC(=O)[C@H](CC(=O)O)NC(=O)[C@H](CC(=O)O)NC1=O)NC(=O)[C@H](CC(C)(C)C)NC(=O)[C@H](CC(=O)O)NC2=O (stereo partly drawn) [I-799, Ac-PL3-Asp-Npg-B5-Asp-Asp-Ala-Ala-Phe-Asn-PyrS2-3Thi-1MeW-His-NH2]		92 nM	2.06		inhibition at 10 µM ([1]; HEK293, 10 uM): 0.9%
CC[C@H](C)[C@@H]1NC(=O)[C@H](CC(=O)O)NC(=O)[C@]2(CC=CCCCC3(CCCC=CCCCCCC[C@@](C)(C(=O)N[C@@H](Cc4ccccc4)C(=O)N[C@@H](Cc4csc5ccccc45)C(=O)N[C@@H](Cc4c[nH]cn4)C(N)=O)NC(=O)[C@H](CC(N)=O)NC(=O)[C@H](Cc4ccccc4)NC(=O)[C@H](C)NC(=O)[C@H](C)NC(=O)[C@H](CC(=O)O)NC(=O)[C@H](CC(=O)O)NC3=O)NC1=O)CCCN2C(C)=O (stereo partly drawn) [I-470, Ac-PL3-Asp-Ile-B5-Asp-Asp-Ala-Ala-Phe-Asn-S8-Phe-BztA-His-NH2]				11 nM	inhibition at 10 µM ([1]; HEK293, @ 10 uM): 14.1%; IC50 ([2]; read-out: FP EC50): 11 nM; CHI Log D (CHI Log D procedure): 2.394
CC(=O)N1CCC[C@]12CC=CCCCC1(CCCC=CCCCOC(=O)N3CC[C@@](C(=O)N[C@@H](Cc4ccsc4)C(=O)N[C@@H](Cc4c[nH]c5ccc(F)cc45)C(=O)N[C@@H](Cc4c[nH]cn4)C(N)=O)(C3)NC(=O)[C@H](CC(N)=O)NC(=O)[C@H](Cc3ccccc3)NC(=O)[C@H](C)NC(=O)[C@H](C)NC(=O)[C@H](CC(=O)O)NC(=O)[C@H](CC(=O)O)NC1=O)NC(=O)[C@H](CC(C)(C)C)NC(=O)[C@H](CC(=O)O)NC2=O (stereo partly drawn) [I-800, Ac-PL3-Asp-Npg-B5-Asp-Asp-Ala-Ala-Phe-Asn-PyrS2-3Thi-5FW-His-NH2]		79 nM	2		inhibition at 10 µM ([1]; HEK293, 10 uM): 8.1%
CC(=O)N1CCC[C@]12CC=CCCCC1(CCCC=CCCCOC(=O)N3CC[C@@](C(=O)N[C@@H](Cc4ccsc4)C(=O)N[C@@H](Cc4csc5ccccc45)C(=O)N[C@@H](CCC(N)=O)C(N)=O)(C3)NC(=O)[C@H](CC(C)C)NC(=O)[C@H](Cc3ccccc3)NC(=O)[C@H](C)NC(=O)[C@H](C)NC(=O)[C@H](Cc3ccccc3C(=O)O)NC(=O)[C@H](CC(=O)O)NC1=O)NC(=O)[C@H](CC(C)(C)C)NC(=O)[C@H](CC(=O)O)NC2=O (stereo partly drawn) [I-854, Ac-PL3-Asp-Npg-B5-Asp-2COOHF-Ala-Ala-Phe-Leu-PyrS2-3Thi-BztA-Gln-NH2]	3.6 µM	8 nM	2.48		IC50 ([1]; read-out: NanoBRET IC50): 4.6 µM
CC(=O)N1CCC[C@]12CC=CCCCC1(CCCC=CCCCOC(=O)N3CC[C@@](C(=O)N[C@@H](Cc4ccccc4C(F)(F)F)C(=O)N[C@@H](Cc4csc5ccccc45)C(=O)N[C@@H](CCC(N)=O)C(N)=O)(C3)NC(=O)[C@H](CC(N)=O)NC(=O)[C@H](Cc3ccccc3)NC(=O)[C@H](C)NC(=O)[C@H](C)NC(=O)[C@H](CN(CC(=O)O)CC(F)(F)F)NC(=O)[C@H](CC(=O)O)NC1=O)NC(=O)[C@H](CC(C)(C)C)NC(=O)[C@H](CC(=O)O)NC2=O (stereo partly drawn) [I-928, Ac-PL3-Asp-Npg-B5-Asp-TfeGA-Ala-Ala-Phe-Asn-PyrS2-2F3MeF-BztA-Gln-NH2]		21 nM			IC50 ([1]; read-out: NanoBRET Abs IC50): 6.1 µM; IC50 ([1]; read-out: NanoBRET IC50): 5 µM; IC50 ([2]; fluorescence polarization, beta-catenin, read-out: FP EC50): 21 nM; CHI Log D (CHI Log D procedure): 2.38
CC(=O)N1CCC[C@]12CC=CCCCC1(CCCC=CCCCOC(=O)N3CC[C@@](C(=O)N[C@@H](Cc4ccccc4Cl)C(=O)N[C@@H](Cc4csc5ccccc45)C(=O)N[C@@H](C(N)=O)[C@H](C)O)(C3)NC(=O)[C@H]([C@@H](C)O)NC(=O)[C@H](Cc3ccccc3)NC(=O)[C@H](C)NC(=O)[C@H](C)NC(=O)[C@H](CCC(=O)O)NC(=O)[C@H](CC(=O)O)NC1=O)NC(=O)[C@H](CC(C)(C)C)NC(=O)[C@H](CC(=O)O)NC2=O (stereo partly drawn) [I-1037, Ac-PL3-Asp-Npg-B5-Asp-Glu-Ala-Ala-Phe-Thr-PyrS2-2C1F-BztA-dThr-NH2]		30 nM	2.52		IC50 ([1]; read-out: NanoBRET Abs IC50): 4.4 µM
CC(=O)N1CCC[C@]12CC=CCCCC1(CCCC=CCCCOC(=O)N3CC[C@@](C(=O)N[C@@H](Cc4ccsc4)C(=O)N[C@@H](Cc4csc5ccccc45)C(=O)N[C@@H](CCC(N)=O)C(N)=O)(C3)NC(=O)[C@H](CC(N)=O)NC(=O)[C@H](Cc3ccccc3)NC(=O)[C@H](C)NC(=O)[C@H](C)NC(=O)[C@H](CN(CC(=O)O)CC(F)(F)F)NC(=O)[C@H](CC(=O)O)NC1=O)NC(=O)[C@H](CC(C)(C)C)NC(=O)C[C@H](CC(=O)O)NC2=O (stereo partly drawn) [I-1161, Ac-PL3-RbGlu-Npg-B5-Asp-TfeGA-Ala-Ala-Phe-Asn-PyrS2-3Thi-BztA-Gln-NH2]	> 20 µM		2.08	24 nM	
CC(=O)N1CCC[C@]12CC=CCCCC1(CCCC=CCCCOC(=O)N3CC[C@@](C(=O)N[C@@H](Cc4ccccc4Cl)C(=O)N[C@@H](Cc4csc5ccccc45)C(=O)N[C@@H](CCC(N)=O)C(N)=O)(C3)NC(=O)[C@H](CC(N)=O)NC(=O)[C@H](Cc3ccccc3)NC(=O)[C@H](C)NC(=O)[C@H](CO)NC(=O)[C@H](CN(CC(=O)O)CC(F)(F)F)NC(=O)[C@H](CC(=O)O)NC1=O)NC(=O)[C@H](CC(C)(C)C)NC(=O)[C@H](CC(=O)O)NC2=O (stereo partly drawn) [I-1009, Ac-PL3-Asp-Npg-B5-Asp-TfeGA-Ser-Ala-Phe-Asn-PyrS2-2C1F-BztA-Gln-NH2]	33.3 µM	11 nM	2.04		
CC(=O)N1CCC[C@]12CC=CCCCC1(CCCC=CCCCCCC[C@@](C)(C(=O)N[C@@H](Cc3ccccc3)C(=O)N[C@@H](Cc3csc4ccccc34)C(=O)N[C@@H](CCC(N)=O)C(N)=O)NC(=O)[C@H](CC(N)=O)NC(=O)[C@H](Cc3ccc(N)cc3)NC(=O)[C@H](C)NC(=O)[C@H](C)NC(=O)[C@H](CCC(=O)O)NC(=O)[C@H](CC(=O)O)NC1=O)NC(=O)[C@H](C)NC(=O)[C@H](CC(=O)O)NC2=O (stereo partly drawn) [I-461, Ac-PL3-Asp-Ala-B5-Asp-Glu-Ala-Ala-4AmPhe-Asn-S8-Phe-BztA-Gln-NH2]			1.94	125 nM	
CC[C@H](C)[C@@H]1NC(=O)[C@H](CC(=O)O)NC(=O)[C@]2(CC=CCCCC3(CCCC=CCCCCCC[C@@](C)(C(=O)N[C@@H](Cc4ccccc4)C(=O)N[C@@H](Cc4csc5ccccc45)C(=O)N[C@@H](CCC(N)=O)C(N)=O)NC(=O)[C@H](CCC(N)=O)NC(=O)[C@H](Cc4ccccc4)NC(=O)[C@H](C)NC(=O)[C@H](C)NC(=O)[C@H](CCC(=O)O)NC(=O)[C@H](CC(=O)O)NC3=O)NC1=O)CCCN2C(=O)CCc1ccccn1 (stereo partly drawn) [I-602, 2PyPrpc-PL3-Asp-Ile-B5-Asp-Glu-Ala-Ala-Phe-Gln-S8-Phe-BztA-Gln-NH2]			3.15	3150 nM	
